# Patent publication US10472347B2, “Aminopyrazine compounds with A2A antagonist properties” (Merck Sharp & Dohme Corp., priority 2014, dated 2019)
# Target: T1, human A2a receptor (Homo sapiens, UniProt P29274)
# T1 construct: purchased Perkin-Elmer RBHA2AM400UA; host or cells: HEK293 cells (membranes)
# Test: A2a competition binding assay, Scintillation Proximity technology
# Conditions: membranes from HEK293 cells expressing human A2a receptor; Ki by Cheng-Prusoff equation
# In short: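 Membranes from HEK293 cells expressing human A2a, adenosine deaminase-treated, incubated 1 h at room temperature with compound (3000 to 0.15 nM) and 0.5 nM tritiated pyrazolotriazolopyrimidine radioligand on WGA SPA beads in Ca/Mg-free PBS + 10 mM MgCl2. Non-specific binding with 1 μM CGS15943; Ki by Cheng-Prusoff.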
# T1 sequence (P29274 whole entry): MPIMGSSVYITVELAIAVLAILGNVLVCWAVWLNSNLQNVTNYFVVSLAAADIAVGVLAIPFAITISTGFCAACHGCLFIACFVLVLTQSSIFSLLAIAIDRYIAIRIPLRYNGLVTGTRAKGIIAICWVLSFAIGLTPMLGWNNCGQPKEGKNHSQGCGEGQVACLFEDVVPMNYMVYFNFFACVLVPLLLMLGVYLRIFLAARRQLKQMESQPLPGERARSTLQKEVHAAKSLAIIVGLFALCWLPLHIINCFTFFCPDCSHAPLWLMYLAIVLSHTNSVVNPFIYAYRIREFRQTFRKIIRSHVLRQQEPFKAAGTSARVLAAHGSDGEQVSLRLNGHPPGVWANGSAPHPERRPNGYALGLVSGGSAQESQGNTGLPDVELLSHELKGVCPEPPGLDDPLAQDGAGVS
row,Structure (SMILES),Ki
1,"Cc1nc(C(=O)NCC(=O)N2CCC2)c(N)nc1-c1ncco1 [Ex-68, 3-amino-N-(2-azetidin-1-yl-2-oxoethyl)-6-methyl-5-(1,3-oxazol-2-yl)pyrazine-2-carboxamide]",27.3 nM
2,"Cc1nc(C(=O)NCc2cncnc2)c(N)nc1-c1ncco1 [Ex-69, 3-amino-6-methyl-5-(1,3-oxazol-2-yl)-N-(pyrimidin-5-ylmethyl)pyrazine-2-carboxamide]",56.5 nM
3,"Cc1ccc(CNC(=O)c2nc(C)c(-c3ncco3)nc2N)c(C)n1 [Ex-70, 3-amino-N-[(2,6-dimethylpyridin-3-yl)methyl]-6-methyl-5-(1,3-oxazol-2-yl)pyrazine-2-carboxamide]",41 nM
4,"Cc1nc(C)c(CNC(=O)c2nc(C)c(-c3ncco3)nc2N)s1 [Ex-71, 3-amino-N-[(2,4-dimethyl-1,3-thiazol-5-yl)methyl]-6-methyl-5-(1,3-oxazol-2-yl)pyrazine-2-carboxamide]",23.8 nM
5,"Cc1nc(C(=O)NCc2ncccc2Cl)c(N)nc1-c1ncco1 [Ex-72, 3-amino-N-[(3-chloropyridin-2-yl)methyl]-6-methyl-5-(1,3-oxazol-2-yl)pyrazine-2-carboxamide]",0.287 nM
6,"Cc1cnc(F)c(CNC(=O)c2nc(C)c(-c3ncco3)nc2N)c1 [Ex-73, 3-amino-N-[(2-fluoro-5-methylpyridin-3-yl)methyl]-6-methyl-5-(1,3-oxazol-2-yl)pyrazine-2-carboxamide]",4.64 nM
7,"Cc1nc(C(=O)NCc2ncc(Cl)cc2F)c(N)nc1-c1ncco1 [Ex-74, 3-amino-N-[(5-chloro-3-fluoropyridin-2-yl)methyl]-6-methyl-5-(1,3-oxazol-2-yl)pyrazine-2-carboxamide]",2.27 nM
8,"Cc1nc(C(=O)NCc2cc(C(F)F)nc(C(F)F)c2)c(N)nc1-c1ncco1 [Ex-75, 3-amino-N-{[2,6-bis(difluoromethyl)pyridin-4-yl]methyl}-6-methyl-5-(1,3-oxazol-2-yl)pyrazine-2-carboxamide]",40.4 nM
9,"Cc1nc(C(=O)NCc2ccncn2)c(N)nc1-c1ncco1 [Ex-76, 3-amino-6-methyl-5-(1,3-oxazol-2-yl)-N-(pyrimidin-4-ylmethyl)pyrazine-2-carboxamide]",50.1 nM
10,"Cc1cn(C)nc1CNC(=O)c1nc(C)c(-c2ncco2)nc1N [Ex-77, 3-amino-N-[(1,4-dimethyl-1H-pyrazol-3-yl)methyl]-6-methyl-5-(1,3-oxazol-2-yl)pyrazine-2-carboxamide]",0.828 nM
11,"Cc1nc(C(=O)NCc2cnn(C)c2C)c(N)nc1-c1ncco1 [Ex-78, 3-amino-N-[(1,5-dimethyl-1H-pyrazol-4-yl)methyl]-6-methyl-5-(1,3-oxazol-2-yl)pyrazine-2-carboxamide]",5.72 nM
12,"CCn1ccnc1CNC(=O)c1nc(C)c(-c2ncco2)nc1N [Ex-79, 3-amino-N-[(1-ethyl-1H-imidazol-2-yl)methyl]-6-methyl-5-(1,3-oxazol-2-yl)pyrazine-2-carboxamide]",0.34 nM
13,"COc1ccc(C)c(CNC(=O)c2nc(C)c(-c3ncco3)nc2N)n1 [Ex-80, 3-amino-N-[(6-methoxy-3-methylpyridin-2-yl)methyl]-6-methyl-5-(1,3-oxazol-2-yl)pyrazine-2-carboxamide]",1.59 nM
14,"Cc1cc(C)nc(CNC(=O)c2nc(C)c(-c3ncco3)nc2N)n1 [Ex-81, 3-amino-N-[(4,6-dimethylpyrimidin-2-yl)methyl]-6-methyl-5-(1,3-oxazol-2-yl)pyrazine-2-carboxamide]",2.8 nM
15,"Cc1nc(C(=O)NC2CCC(F)(F)CC2)c(N)nc1-c1ncco1 [Ex-83, 3-amino-N-(4,4-difluorocyclohexyl)-6-methyl-5-(1,3-oxazol-2-yl)pyrazine-2-carboxamide]",3.18 nM
16,"Cc1nc(C(=O)NCc2cccc(C(C)C)n2)c(N)nc1-c1ncco1 [Ex-85, 3-amino-6-methyl-N-{[6-(1-methylethyl)pyridin-2-yl]methyl}-5-(1,3-oxazol-2-yl)pyrazine-2-carboxamide]",0.7 nM
17,"Cc1nc(C(=O)NCc2nccn2C(C)C)c(N)nc1-c1ncco1 [Ex-87, 3-amino-6-methyl-N-{[1-(1-methylethyl)-1H-imidazol-2-yl]methyl}-5-(1,3-oxazol-2-yl)pyrazine-2-carboxamide]",0.471 nM
18,"Cc1ccc(CNC(=O)c2nc(C)c(-c3ncco3)nc2N)nc1-c1ccccn1 [Ex-88, 3-amino-6-methyl-N-[(3-methyl-2,2′-bipyridin-6-yl)methyl]-5-(1,3-oxazol-2-yl)pyrazine-2-carboxamide]",6.16 nM
19,"Cc1ccc(C(C)C)nc1CNC(=O)c1nc(C)c(-c2ncco2)nc1N [Ex-89, 3-amino-6-methyl-N-{[3-methyl-6-(1-methylethyl)pyridin-2-yl]methyl}-5-(1,3-oxazol-2-yl)pyrazine-2-carboxamide]",0.746 nM
20,"CCOCCc1ccc(C)c(CNC(=O)c2nc(C)c(-c3ncco3)nc2N)n1 [Ex-90, 3-amino-N-{[6-(2-ethoxyethyl)-3-methylpyridin-2-yl]methyl}-6-methyl-5-(1,3-oxazol-2-yl)pyrazine-2-carboxamide]",4.95 nM

# Results, then the compound that gave them:
row,Ki,Structure (SMILES)
1,2.93 nM,"Cc1nc(C(=O)NCc2cccn(CC(F)F)c2=O)c(N)nc1-c1ncco1 [Ex-91, 3-amino-N-{[1-(2,2-difluoroethyl)-2-oxo-1,2-dihydropyridin-3-yl]methyl}-6-methyl-5-(1,3-oxazol-2-yl)pyrazine-2-carboxamide]"
2,11.4 nM,"Cc1nc(C(=O)NCc2nc(C(F)(F)F)cn2C)c(N)nc1-c1ncco1 [Ex-92, 3-amino-6-methyl-N-{[1-methyl-4-(trifluoromethyl)-1H-imidazol-2-yl]methyl}-5-(1,3-oxazol-2-yl)pyrazine-2-carboxamide]"
3,4 nM,"Cc1nc(C(=O)NCC2(C#N)CCC2)c(N)nc1-c1ncco1 [Ex-93, 3-amino-N-[(1-cyanocyclobutyl)methyl]-6-methyl-5-(1,3-oxazol-2-yl)pyrazine-2-carboxamide]"
4,0.276 nM,"Cc1nc(C(=O)NCc2cccc3cc[nH]c23)c(N)nc1-c1ncco1 [Ex-95, 3-amino-N-(1H-indol-7-ylmethyl)-6-methyl-5-(1,3-oxazol-2-yl)pyrazine-2-carboxamide]"
5,12.8 nM,"Cc1nc(C(=O)NCc2cnc3ccccn23)c(N)nc1-c1ncco1 [Ex-96, 3-amino-N-(imidazo-[1,2-a]pyridin-3-yl-methyl)-6-methyl-5-(1,3-oxazol-2-yl)-pyrazine-2-carboxamide]"
6,35.2 nM,"Cc1nc(C(=O)NCc2c(C)nc3ccccn23)c(N)nc1-c1ncco1 [Ex-97, 3-amino-6-methyl-N-[(2-methylimidazo[1,2-a]pyridin-3-yl)methyl]-5-(1,3-oxazol-2-yl)pyrazine-2-carboxamide]"
7,2.93 nM,"Cc1nc(C(=O)NCc2ccc3c(n2)NCCC3)c(N)nc1-c1ncco1 [Ex-98, 3-amino-6-methyl-5-(1,3-oxazol-2-yl)-N-(5,6,7,8-tetrahydro-1,8-naphthyridin-2-ylmethyl)pyrazine-2-carboxamide]"
8,208 nM,"Cc1nc(C(=O)NCc2ccc[n+]([O-])c2)c(N)nc1-c1ncco1 [Ex-99, 3-amino-6-methyl-5-(1,3-oxazol-2-yl)-N-[(1-oxidopyridin-3-yl)methyl]pyrazine-2-carboxamide]"
9,110 nM,"Cc1nc(C(=O)NCc2ncn(CC3CC3)c2C)c(N)nc1-c1ncco1 [Ex-100, 3-amino-N-{[1-(cyclopropylmethyl)-5-methyl-1H-imidazol-4-yl]methyl}-6-methyl-5-(1,3-oxazol-2-yl)pyrazine-2-carboxamide]"
10,12.9 nM,"Cc1nc(C(=O)N[C@H]2CC[C@@H](C(F)(F)F)CC2)c(N)nc1-c1ncco1 [Ex-101, 3-amino-6-methyl-5-(1,3-oxazol-2-yl)-N-[cis-4-(trifluoromethyl)cyclohexyl] pyrazine-2-carboxamide]"
11,11.9 nM,"Cc1ccc2nc(CNC(=O)c3nc(C)c(-c4ncco4)nc3N)cn2c1 [Ex-102, 3-amino-6-methyl-N-[(6-methylimidazo[1,2-a]pyridin-2-yl)methyl]-5-(1,3-oxazol-2-yl)pyrazine-2-carboxamide]"
12,0.353 nM,"Cc1nc(C(=O)NCc2n[nH]c3c2CCC3)c(N)nc1-c1ncco1 [Ex-103, 3-amino-6-methyl-5-(1,3-oxazol-2-yl)-N-(1,4,5,6-tetrahydrocyclopenta[c]pyrazol-3-ylmethyl)pyrazine-2-carboxamide]"
13,252 nM,"Cc1nc(C(=O)N(C)C(C)c2ccccn2)c(N)nc1-c1ncco1 (stereo not drawn) [Ex-106, 3-amino-N,6-dimethyl-5-(1,3-oxazol-2-yl)-N-(1-pyridin-2-ylethyl)pyrazine-2-carboxamide]"
14,1.15 nM,"Cc1cc(F)cnc1CNC(=O)c1nc(C)c(-c2ncco2)nc1N [Ex-107, 3-amino-N-[(5-fluoro-3-methylpyridin-2-yl)methyl]-6-methyl-5-(1,3-oxazol-2-yl)pyrazine-2-carboxamide]"
15,6.58 nM,"Cc1nc(C(=O)NCc2nccc(C(F)(F)F)n2)c(N)nc1-c1ncco1 [Ex-108, 3-amino-6-methyl-5-(1,3-oxazol-2-yl)-N-{[4-(trifluoromethyl)pyrimidin-2-yl]methyl}pyrazine-2-carboxamide]"
16,15 nM,"Cc1nc(C(=O)NCc2ncc(F)cn2)c(N)nc1-c1ncco1 [Ex-109, 3-amino-N-[(5-fluoropyrimidin-2-yl)methyl]-6-methyl-5-(1,3-oxazol-2-yl)pyrazine-2-carboxamide]"
17,1.32 nM,"COc1ccnc(CNC(=O)c2nc(C)c(-c3ncco3)nc2N)n1 [Ex-110, 3-amino-N-[(4-methoxypyrimidin-2-yl)methyl]-6-methyl-5-(1,3-oxazol-2-yl)pyrazine-2-carboxamide]"
18,82.2 nM,"Cc1ccn2cc(CNC(=O)c3nc(C)c(-c4ncco4)nc3N)nc2c1 [Ex-111, 3-amino-6-methyl-N-[(7-methylimidazo[1,2-a]pyridin-2-yl)methyl]-5-(1,3-oxazol-2-yl)pyrazine-2-carboxamide]"
19,14.5 nM,"Cc1nc(C(=O)NCC(=O)c2ccc(F)cc2)c(N)nc1-c1ncco1 [Ex-112, 3-amino-N-[2-(4-fluorophenyl)-2-oxoethyl]-6-methyl-5-(1,3-oxazol-2-yl)pyrazine-2-carboxamide]"
